Usually melting point stands for the temperature of the solid-liquid transition. The inhibition is the drop in the measured response relative to a control, in per cent.

The results in this text go back to article PMC6272548, “Synthesis and Antiplatelet Activity of Antithrombotic Thiourea Compounds: Biological and Structure-Activity Relationship Studies” (Molecules, 2015).

Where two headings read alike, the source gives them in different places.

One data set concerns Salmonella typhimurium. As to the kind of experiment: Reverse mutagenesis to histidine prototrophy (Ames test), spot test. To be noted: without metabolic activation; 10 µM, 100 µM and 500 µM. How it is done: This assay was performed as described by Maron and Ames, using the histidine Salmonella typhimurium auxotroph mutant strains TA97, TA98, TA100 and the […] TA102 (Table 5).

Another data set concerns human platelets. The experiment in a line: Platelet aggregation of human citrated platelet-rich plasma induced by arachidonic acid (turbidimetric). Format: cell-based. Conditions: for Antiplatelet activity (in words): AA-induced platelet aggregation; for inhibition at 100 µM: healthy human platelets, read-out: Inhibition of AA-induced platelet aggregation. How it is done: The human blood samples were obtained from adult volunteers, who abstained from the use of drugs or other substances that could interfere with the experiment for at least 15 days prior. […] The platelet rich (PRP) and poor (PPP) plasma were prepared by differential centrifugation and platelet aggregation was monitored using the turbidimetric method described by Born and Cross with an aggregometer 4-Pack® (Helena Laboratories, Beaumount, TX, USA). Different concentrations of the synthetic derivatives and the vehicle (DMSO 1%) were pre-incubated for 2 min before addition of the agonists (500 μM arachidonic acid and 5 μg/mL collagen). The platelet aggregation tests were performed in triplicate and the data were statistically analyzed.

The next data set relates to PGE2 production. As to the kind of experiment: Measurement of plasma PGE2 levels by EIA in platelet-rich plasma. Type of data set: cell-based. To be noted: human platelet-rich plasma. How it is done: The stable direct metabolite of PGE2, 13,14-dihydro-15-keto-Prostaglandin E2, is a known marker of the COX-1 activity. By the measurement of total levels of this PGE2 metabolite in human platelet-rich plasma, we evaluated the feasibility of antiplatelet N,N'-disubstituted thioureas to inhibit COX-1 activity in healthy platelets (Table 2).
Plasma samples containing 100 μM of each thiourea with antiplatelet activity were used to determine the concentrations of […], an index of in vitro COX-1 activity. Briefly, ozagrel (3 μL, 100 μM) were added to stop TXS activity and the aggregation were triggered with 10 μL of arachidonic acid (500 μM) in PRP samples containing each active derivative (100 μM) under stir conditions. After five minutes the suspensions were mixed with indomethacin (3 μL, 10 mM) stop-solution. By sonication for 1 min, platelets were disrupted and purification step were performed according to the manufacturer’s instructions (Cayman Chemical Co.). Plasma levels of PGE2 were measured in duplicate by competitive immunoassay using commercially available kits for EIA (PGE2 EIA Kit, Cayman Chemical Co.) according to the manufacturer’s instructions. A threshold of 25.75 ng/mL was defined as control plasma levels of PGE2 after platelet disrupture.

Another data set relates to TXB2 production. As to the kind of experiment: Measurement of plasma TXB2 levels by EIA in platelet-rich plasma. Format: cell-based. To be noted: for inhibition at 100 µM: Homo sapiens, Platelet. How it is done:
Thromboxane B2 (TXB2), a stable TXA2 metabolite, is widely used as a prognostic risk marker of platelet activation in cardiovascular disease, which is closely related to COX-1 and Thromboxane Synthetase activity. Thus, the plasma levels of this metabolite were measured using an enzyme immunoassay (EIA) as described in the Experimental Section.
Plasma samples containing 100 μM of each thiourea with antiplatelet activity were used to determine the concentrations of thromboxane B2, an index of in vitro COX-1 activity. Briefly, 10 μL of arachidonic acid (500 μM) were added to platelet-rich plasma samples containing each active derivative (100 μM) under stir conditions. After five minutes the suspensions were mixed with 3 μL Indomethacin (10 mM) stop-solution. By sonication for 15 min, platelets were disrupted, and the resulting homogenates were centrifuged at 2000 g for 10 min to allow complete release of TXB2. Plasma levels of TXB2 were measured in duplicate by competitive immunoassay using commercially available kits from EIA Cayman (TXB2 EIA Kit, Cayman Chemical Co, Ann Arbor, MI, USA) according to the manufacturer’s instructions. A threshold of 25.75 ng/mL was defined as control plasma levels of TXB2 after platelet disrupture.

[1] abbreviates: Homo sapiens, Platelet, read-out: IC50, concentration that caused 50% inhibition of platelet aggregation, arachidonic acid-induced (500 μM), human platelet-rich plasma.
Where [2] appears, read: read-out: IC50, concentration that caused 50% inhibition of platelet aggregation, arachidonic acid-induced (500 μM), human platelet-rich plasma.

`S=C(Nc1ccccc1)Nc1ccc2c(c1)OCO2` [3f, N-3,4-Methylenedioxyphenyl-N'-phenylthiourea] returned a melting point of 140 to 142 °C. Besides, in the data set on Salmonella typhimurium, the “Ames Test S. typhimurium TA97” value is “-”, the “Ames Test S. typhimurium TA98” value is “-”, the “Ames Test S. typhimurium TA100” value is “-” and the “Ames Test S. typhimurium TA102” value is given as “-”. The “Antiplatelet activity (in words)” value with human platelets is reported as “lack antiplatelet activity”. The IC50 in the data set on human platelets (setting [1]) came to 322 ± 8.9 µM.

With `S=C(Nc1ccccc1)Nc1cccc2ccccc12` [3g, N-α-Naphthyl-N'-phenylthiourea], in the data set on Salmonella typhimurium, the “Ames Test S. typhimurium TA97” value is recorded as “-”, the “Ames Test S. typhimurium TA98” value is “-”, the “Ames Test S. typhimurium TA100” value is reported as “-” and the “Ames Test S. typhimurium TA102” value was “-”. In addition, the IC50 with human platelets (setting [2]) came out at 142 ± 9 µM.

For the compound `COc1ccc2c(c1)c(CC(=O)O)c(C)n2C(=O)c1ccc(Cl)cc1` [Indomethacin, reference compound], the inhibition at 100 µM in the data set with PGE2 production worked out at 28 ± 1.6%; in the data set on TXB2 production, 99.8%.

Consider `CCCCNC(=S)NCCc1ccccc1` [3l, N-Butyl-N'-(2-phenethyl)thiourea], for which the melting point was in the range of 61 to 63 °C. In the data set with Salmonella typhimurium, the “Ames Test S. typhimurium TA97” value is listed as “-”, the “Ames Test S. typhimurium TA98” value was “-”, the “Ames Test S. typhimurium TA100” value is listed as “-” and the “Ames Test S. typhimurium TA102” value is listed as “-”. Moreover, in the data set on human platelets (setting [1]), the IC50 was 153 ± 15 µM.

In turn, `CC(C)NC(=S)NCc1ccccc1` [3h, N-Benzyl-N'-isopropylthiourea] came in with a melting point of 121 to 123 °C. Further, in the data set on Salmonella typhimurium, the “Ames Test S. typhimurium TA97” value is given as “-”, the “Ames Test S. typhimurium TA98” value is “-”, the “Ames Test S. typhimurium TA100” value was “-” and the “Ames Test S. typhimurium TA102” value is listed as “-”. The IC50 in the data set with human platelets (setting [1]) was 214 ± 10.2 µM.

As for `S=C(NCCc1ccccc1)Nc1cccc2ccccc12` [3o, N-(α-Naphthyl)-N'-(2-phenethyl)thiourea], the melting point was in the range of 155 to 157 °C. Moreover, in the data set on Salmonella typhimurium, the “Ames Test S. typhimurium TA97” value is on record as “-”, the “Ames Test S. typhimurium TA98” value is “-”, the “Ames Test S. typhimurium TA100” value was “-” and the “Ames Test S. typhimurium TA102” value is reported as “-”. Further, the IC50 in the data set on human platelets (setting [1]) was 157 ± 19.9 µM.

`S=C(NCCc1ccccc1)NC1CCCCC1` [3n, N-Cyclohexyl-N'-(2-phenethyl)thiourea] returned a melting point of 109 to 111 °C. In the data set on Salmonella typhimurium, the “Ames Test S. typhimurium TA97” value is “-”, the “Ames Test S. typhimurium TA98” value is recorded as “-”, the “Ames Test S. typhimurium TA100” value is reported as “-” and the “Ames Test S. typhimurium TA102” value was “-”. Besides, the IC50 with human platelets (setting [1]) stood at 277 ± 42.9 µM.

With `CCN(CC)C(=S)NCc1ccccc1` [3i, N-Benzyl-N',N'-diethylthiourea], in the data set with Salmonella typhimurium, the “Ames Test S. typhimurium TA97” value is reported as “-”, the “Ames Test S. typhimurium TA98” value is recorded as “-”, the “Ames Test S. typhimurium TA100” value is given as “-” and the “Ames Test S. typhimurium TA102” value is “-”. The same compound returned an inhibition at 100 µM in the data set on PGE2 production of 21.1 ± 5%. Moreover, the inhibition at 100 µM in the data set with TXB2 production was 74.7 ± 5.5%. Besides, in the data set with human platelets (Platelet), the inhibition at 100 µM fell in the range of 96 to 98%. In the data set with human platelets (setting [2]), the IC50 was 86.2 µM.

The compound `COc1cc(NC(=S)Nc2ccccc2)cc(OC)c1OC` [3e, N-Phenyl-N'-(3,4,5-trimethoxyphenyl)thiourea] showed a melting point of 164 to 166 °C. In the data set on Salmonella typhimurium, the “Ames Test S. typhimurium TA97” value was “-”, the “Ames Test S. typhimurium TA98” value is on record as “-”, the “Ames Test S. typhimurium TA100” value is listed as “-” and the “Ames Test S. typhimurium TA102” value is reported as “-”. For the same compound, the “Antiplatelet activity (in words)” value in the data set with human platelets is on record as “lack antiplatelet activity”. In addition, the IC50 with human platelets (setting [1]) turned out to be 251 ± 3.5 µM.

As to `CCN(CC)C(=S)Nc1ccccc1` [3d, N-N-Diethyl-N'-phenylthiourea], in the data set on Salmonella typhimurium, the “Ames Test S. typhimurium TA97” value was “-”, the “Ames Test S. typhimurium TA98” value was “-”, the “Ames Test S. typhimurium TA100” value is reported as “-” and the “Ames Test S. typhimurium TA102” value is reported as “-”. For the same compound, in the data set on PGE2 production, the inhibition at 100 µM worked out at 25.6 ± 5.9%. The same compound showed an inhibition at 100 µM in the data set with TXB2 production of 74.2 ± 10.2%. Moreover, the IC50 in the data set with human platelets (setting [1]) worked out at 29.1 µM. Also, the inhibition at 100 µM in the data set with human platelets (Platelet) fell in the range of 96 to 98%.

Compound `CCN(CC)C(S)=NCCc1ccccc1` [3m, N,N-diethyl-N'-(2-phenethyl)thiourea] returned a melting point of 72 to 74 °C. Further, in the data set on Salmonella typhimurium, the “Ames Test S. typhimurium TA97” value is reported as “-”, the “Ames Test S. typhimurium TA98” value was “-”, the “Ames Test S. typhimurium TA100” value is reported as “-” and the “Ames Test S. typhimurium TA102” value is on record as “-”. For the same compound, the inhibition at 100 µM in the data set with PGE2 production amounted to 28.2 ± 5.9%. Moreover, the “Platelet Inhibition of TXB2 (%)” value with TXB2 production (100 µM, human platelet-rich plasma) is 91.2 ± 0.0%. Besides, the inhibition at 100 µM in the data set on TXB2 production is 91%. The IC50 in the data set on human platelets (setting [1]) was 34.5 µM. The inhibition at 100 µM in the data set on human platelets (Platelet) fell in the range of 96 to 98%. In the data set with human platelets (setting [2]), the IC50 worked out at 34.5 ± 0.9 µM.

In the case of `CC(C)NC(=S)NCCc1ccccc1` [3k, N-Isopropyl-N'-(2-phenethyl)thiourea], the melting point lay within 126 to 128 °C. In the data set with Salmonella typhimurium, the “Ames Test S. typhimurium TA97” value was “-”, the “Ames Test S. typhimurium TA98” value is reported as “-”, the “Ames Test S. typhimurium TA100” value is given as “-” and the “Ames Test S. typhimurium TA102” value was “-”. For the same compound, in the data set on human platelets (setting [1]), the IC50 is 188 ± 10.7 µM.

Regarding `CNC(=S)Nc1ccccc1` [3a, N-Methyl-N'-phenylthiourea], in the data set on Salmonella typhimurium, the “Ames Test S. typhimurium TA97” value is “-”, the “Ames Test S. typhimurium TA98” value is listed as “-”, the “Ames Test S. typhimurium TA100” value is recorded as “-” and the “Ames Test S. typhimurium TA102” value is on record as “-”. Moreover, the IC50 in the data set with human platelets (setting [1]) amounted to 308 ± 10.4 µM.

In turn, `COc1cc(NC(=S)Nc2ccc3c(c2)OCO3)cc(OC)c1OC` [3q, N-(3,4-Methylenedioxyphenyl)-N'-(3,4,5-trimethoxyphenyl)thiourea] returned a melting point of 142 to 144 °C. Moreover, in the data set with Salmonella typhimurium, the “Ames Test S. typhimurium TA97” value was “-”, the “Ames Test S. typhimurium TA98” value is listed as “-”, the “Ames Test S. typhimurium TA100” value is reported as “-” and the “Ames Test S. typhimurium TA102” value is recorded as “-”. For the same compound, the “Antiplatelet activity (in words)” value in the data set with human platelets is listed as “lack antiplatelet activity”. Further, the IC50 with human platelets (setting [1]) was determined as 290 ± 21.9 µM.

The compound `OCCNC(=S)Nc1ccccc1` [3c, N-(2-Hydroxyethyl)-N'-phenylthiourea] came in with a melting point of 139 to 141 °C. In the data set with Salmonella typhimurium, the “Ames Test S. typhimurium TA97” value is listed as “-”, the “Ames Test S. typhimurium TA98” value is on record as “-”, the “Ames Test S. typhimurium TA100” value is listed as “-” and the “Ames Test S. typhimurium TA102” value is “-”. The IC50 in the data set on human platelets (setting [1]) amounted to 170 ± 17.3 µM.

For `S=C(Nc1ccccc1)NC1CCCCC1` [3b, N-Cyclohexyl-N'-phenylthiourea], the melting point lay within 149 to 151 °C. In the data set on Salmonella typhimurium, the “Ames Test S. typhimurium TA97” value is given as “-”, the “Ames Test S. typhimurium TA98” value was “-”, the “Ames Test S. typhimurium TA100” value is listed as “-” and the “Ames Test S. typhimurium TA102” value is “-”. For the same compound, the IC50 in the data set with human platelets (setting [1]) turned out to be 153 ± 4.5 µM.

The compound `S=C(NCc1ccccc1)Nc1ccc2c(c1)OCO2` [3j, N-Benzyl-N'-(3,4-methylenedioxyphenyl)thiourea] gave a melting point of 114 to 116 °C. In the data set with Salmonella typhimurium, the “Ames Test S. typhimurium TA97” value was “-”, the “Ames Test S. typhimurium TA98” value is on record as “-”, the “Ames Test S. typhimurium TA100” value is recorded as “-” and the “Ames Test S. typhimurium TA102” value is listed as “-”. The IC50 with human platelets (setting [1]) came out at 155 ± 3.6 µM.

In the data set on TXB2 production, `O=C(O)/C=C/c1ccc(Cn2ccnc2)cc1` [Ozagrel, reference compound] had an inhibition at 100 µM of 98 ± 2.8%.
